Converted amounts (≈) assume the structure as drawn.
Assays:
Type in all cases: cell-based
[1] = tested on: Salmonella enteritidis G 14; assay: Antibacterial activity, agar-dilution MIC, organism No. 12; conditions: Salmonella enterica, ENTERITIDIS; Organism No. 12, bouillon-agar; read-out: Minimum Inhibitory Concentration
In short: (§1)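 MICs were determined by agar dilution on bouillon-agar medium. The value is the minimum concentration of specimen inhibiting growth, expressed as μg/ml of culture medium.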

[2] = tested on: Micrococcus luteus ATCC 9341; assay: Antibacterial activity, agar-dilution MIC, organism No. 25; conditions: Micrococcus luteus, ATCC9341; Organism No. 25, bouillon-agar; read-out: Minimum Inhibitory Concentration
In short: as §1

[3] = tested on: Aspergillus niger IFO 6342; assay: Antifungal activity, agar-dilution MIC, organism No. 30; conditions: Aspergillus niger, IFO6342; Organism No. 30, bouillon-agar; read-out: Minimum Inhibitory Concentration
In short: as §1

[4] = tested on: Proteus rettgeri IFO 3850; assay: Antibacterial activity, agar-dilution MIC, organism No. 22; conditions: Providencia rettgeri, IFO3850; Organism No. 22, bouillon-agar; read-out: Minimum Inhibitory Concentration
In short: as §1

Salmonella typhi 901 = assay: Antibacterial activity, agar-dilution MIC, organism No. 9; conditions: Salmonella enterica, TYPHI, read-out: Minimum Inhibitory Concentration
In short: as §1

Proteus vulgaris OX-19 = assay: Antibacterial activity, agar-dilution MIC, organism No. 20; conditions: Proteus vulgaris, OX19; Organism No. 20, bouillon-agar; read-out: Minimum Inhibitory Concentration
In short: as §1

[5] = tested on: Staphylococcus aureus MS 353; assay: Antibacterial activity, agar-dilution MIC, organism No. 3; conditions: Staphylococcus aureus, MS353; Organism No. 3, bouillon-agar; read-out: Minimum Inhibitory Concentration
In short: as §1

[6] = tested on: Bacillus subtilis ATCC 6633; assay: Antibacterial activity, agar-dilution MIC, organism No. 14; conditions: Bacillus subtilis, ATCC6633; Organism No. 14, bouillon-agar; read-out: Minimum Inhibitory Concentration
In short: as §1

[7] = tested on: Salmonella shottmuelleri 8006; assay: Antibacterial activity, agar-dilution MIC, organism No. 11; conditions: Salmonella, 8006; Organism No. 11, bouillon-agar; read-out: Minimum Inhibitory Concentration
In short: as §1

[8] = tested on: Staphylococcus aureus FDA 209PJc-1; assay: Antibacterial activity, agar-dilution MIC, organism No. 1; conditions: Staphylococcus aureus, FDA209PJC1; Organism No. 1, bouillon-agar; read-out: Minimum Inhibitory Concentration
In short: as §1

[9] = tested on: Salmonella typhimurium IID 971; assay: Antibacterial activity, agar-dilution MIC, organism No. 8; conditions: Salmonella enterica; Organism No. 8, bouillon-agar; read-out: Minimum Inhibitory Concentration
In short: as §1

[10] = tested on: Proteus morganii IFO 3848; assay: Antibacterial activity, agar-dilution MIC, organism No. 18; conditions: Morganella morganii, IFO3848; Organism No. 18, bouillon-agar; read-out: Minimum Inhibitory Concentration
In short: as §1

[11] = tested on: Mycoplasma pneumoniae IID817; assay: Antimycoplasmal activity, MIC by phenol red colour change, organism No. 28; conditions: Mycoplasma, IID817; Organism No. 28, PPLO broth + 1% glucose, 37° C.; read-out: Minimum Inhibitory Concentration (MIC)
Description: Mycoplasma pneumoniae IID817 was used as the test microorganism in a culture medium prepared by adding 1% of glucose to "PPLO broth (manufactured by Difco Co.) liquid culture medium" at 37° C. with phenol red as an indicator, thereby culturing the test microorganism.

[12] = tested on: Pseudomonas aeruginosa NCTC 10490; assay: Antibacterial activity, agar-dilution MIC, organism No. 16; conditions: Pseudomonas aeruginosa, NCTC10490; Organism No. 16, bouillon-agar; read-out: Minimum Inhibitory Concentration
In short: as §1

[13] = tested on: Salmonella paratyphi-A 1015; assay: Antibacterial activity, agar-dilution MIC, organism No. 10; conditions: Salmonella enterica, PARATYPHI, read-out: Minimum Inhibitory Concentration
In short: as §1

[14] = tested on: Streptococcus pyogenes IFO 3340; assay: Antibacterial activity, agar-dilution MIC, organism No. 26; conditions: Streptococcus pyogenes, IFO3340; Organism No. 26, bouillon-agar; read-out: Minimum Inhibitory Concentration
In short: as §1

[15] = tested on: Escherichia coli K12 C600 IAM 1264; assay: Antibacterial activity, agar-dilution MIC, organism No. 6; conditions: Escherichia coli, IAM1264; Organism No. 6, bouillon-agar; read-out: Minimum Inhibitory Concentration
In short: as §1

[16] = tested on: Streptococcus pyogenes Cook; assay: Antibacterial activity, agar-dilution MIC, organism No. 4; conditions: Streptococcus pyogenes; Organism No. 4, bouillon-agar; read-out: Minimum Inhibitory Concentration
In short: as §1

[17] = tested on: Streptococcus faecium IFO 3826; assay: Antibacterial activity, agar-dilution MIC, organism No. 27; conditions: Enterococcus faecium, IFO3826; Organism No. 27, bouillon-agar; read-out: Minimum Inhibitory Concentration
In short: as §1

[18] = tested on: Pseudomonas aeruginosa PAO 1; assay: Antibacterial activity, agar-dilution MIC, organism No. 17; conditions: Pseudomonas aeruginosa, PAO1; Organism No. 17, bouillon-agar; read-out: Minimum Inhibitory Concentration
In short: as §1

Proteus vulgaris HX-19 = assay: Antibacterial activity, agar-dilution MIC, organism No. 21; conditions: Proteus vulgaris, HX19; Organism No. 21, bouillon-agar; read-out: Minimum Inhibitory Concentration
In short: as §1

[19] = tested on: Enterobacter aerogenes ATCC 13048; assay: Antibacterial activity, agar-dilution MIC, organism No. 23; conditions: Klebsiella aerogenes, ATCC13048; Organism No. 23, bouillon-agar; read-out: Minimum Inhibitory Concentration
In short: as §1

[20] = tested on: Proteus mirabilis IFO 3849; assay: Antibacterial activity, agar-dilution MIC, organism No. 19; conditions: Proteus mirabilis, IFO3849; Organism No. 19, bouillon-agar; read-out: Minimum Inhibitory Concentration
In short: as §1

[21] = tested on: Escherichia coli NIHJ-JC-2; assay: Antibacterial activity, agar-dilution MIC, organism No. 5; conditions: Escherichia coli, NIHJJC2; Organism No. 5, bouillon-agar; read-out: Minimum Inhibitory Concentration
In short: as §1

[22] = tested on: Pseudomonas aeruginosa IFO 3445; assay: Antibacterial activity, agar-dilution MIC, organism No. 15; conditions: Pseudomonas aeruginosa, IFO3445; Organism No. 15, bouillon-agar; read-out: Minimum Inhibitory Concentration
In short: as §1

[23] = tested on: Staphylococcus aureus Terajima; assay: Antibacterial activity, agar-dilution MIC, organism No. 2; conditions: Staphylococcus aureus; Organism No. 2, bouillon-agar; read-out: Minimum Inhibitory Concentration
In short: as §1

Enterobacter cloacae 963 = assay: Antibacterial activity, agar-dilution MIC, organism No. 24; conditions: Enterobacter cloacae, 963; Organism No. 24, bouillon-agar; read-out: Minimum Inhibitory Concentration
In short: as §1

[24] = tested on: Klebsiella pneumoniae PCI-602; assay: Antibacterial activity, agar-dilution MIC, organism No. 7; conditions: Klebsiella pneumoniae, PCI602; Organism No. 7, bouillon-agar; read-out: Minimum Inhibitory Concentration
In short: as §1

[25] = tested on: Candida albicans IAM 4905; assay: Antifungal activity, agar-dilution MIC, organism No. 29; conditions: Candida albicans, IAM4905; Organism No. 29, bouillon-agar; read-out: Minimum Inhibitory Concentration
In short: as §1

[26] = tested on: Serratia marcescens IAM 1184; assay: Antibacterial activity, agar-dilution MIC, organism No. 13; conditions: Serratia marcescens, IAM1184; Organism No. 13, bouillon-agar; read-out: Minimum Inhibitory Concentration
Description: Agar-dilution method was used for determination of the antibacterial activity and antifungal activity while using bouillon-agar culture medium, and the minimum inhibitory concentration of the specimen was expressed by μg/ml of the culture medium.

Row | Compound | MIC [1] [µg/mL] | MIC [2] [µg/mL] | MIC [3] [µg/mL] | MIC [4] [µg/mL] | MIC (Salmonella typhi 901) [µg/mL] | MIC (Proteus vulgaris OX-19) [µg/mL] | MIC [5] [µg/mL] | MIC [6] [µg/mL] | MIC [7] [µg/mL] | MIC [8] [µg/mL] | MIC [9] [µg/mL] | MIC [10] [µg/mL] | MIC [12] [µg/mL] | MIC [13] [µg/mL] | MIC [15] [µg/mL] | MIC [16] [µg/mL] | MIC [18] [µg/mL] | MIC (Proteus vulgaris HX-19) [µg/mL] | MIC [19] [µg/mL] | MIC [20] [µg/mL] | also measured
1 | [C-]#[N+]C12CC3(/C=C/C(=O)Nc4ccccc4Cl)OC3C1O2 (stereo not drawn) [compound 42] | 25 (≈ 82.6 µM) | < 0.05 | 3.13 (≈ 10.3 µM) | > 200 | 12.5 (≈ 41.3 µM) | 3.13 (≈ 10.3 µM) | 0.39 (≈ 1.29 µM) | 6.25 (≈ 20.6 µM) | 3.13 (≈ 10.3 µM) | 0.39 (≈ 1.29 µM) | 25 (≈ 82.6 µM) | 3.13 (≈ 10.3 µM) | > 200 | 6.25 (≈ 20.6 µM) | > 200 | > 200 | > 200 | 0.1 (≈ 0.33 µM) | > 200 | > 200 | MIC [11]: < 0.2 µg/mL; MIC [14]: 1.56 µg/mL (≈ 5.15 µM); MIC [17]: 25 µg/mL (≈ 82.6 µM); MIC [21]: > 200 µg/mL; MIC [22]: > 200 µg/mL; MIC [23]: 1.56 µg/mL (≈ 5.15 µM); MIC (Enterobacter cloacae 963): > 200 µg/mL; MIC [24]: 0.78 µg/mL (≈ 2.58 µM); MIC [25]: 1.56 µg/mL (≈ 5.15 µM)
2 | [C-]#[N+]C12CC3(/C=C/C(=O)Nc4ccc(F)cc4)OC3C1O2 (stereo not drawn) [compound 43] | 3.13 (≈ 10.9 µM) | 0.2 (≈ 0.699 µM) | 1.56 (≈ 5.45 µM) | 1.56 (≈ 5.45 µM) | 1.56 (≈ 5.45 µM) | 0.39 (≈ 1.36 µM) | 1.56 (≈ 5.45 µM) | 6.25 (≈ 21.8 µM) | 0.78 (≈ 2.72 µM) | 0.78 (≈ 2.72 µM) | 6.25 (≈ 21.8 µM) | 0.39 (≈ 1.36 µM) | > 200 | 0.78 (≈ 2.72 µM) | 25 (≈ 87.3 µM) | 25 (≈ 87.3 µM) | > 200 | 0.39 (≈ 1.36 µM) | > 200 | 12.5 (≈ 43.7 µM) | MIC [11]: < 0.2 µg/mL; MIC [14]: 3.13 µg/mL (≈ 10.9 µM); MIC [17]: 12.5 µg/mL (≈ 43.7 µM); MIC [21]: 6.25 µg/mL (≈ 21.8 µM); MIC [22]: > 200 µg/mL; MIC [23]: 3.13 µg/mL (≈ 10.9 µM); MIC (Enterobacter cloacae 963): 12.5 µg/mL (≈ 43.7 µM); MIC [24]: 0.78 µg/mL (≈ 2.72 µM); MIC [25]: 0.39 µg/mL (≈ 1.36 µM)
3 | [C-]#[N+]C12CC3(/C=C/C(=O)Nc4ccc(Br)cc4)OC3C1O2 (stereo not drawn) [compound 44] | 50 (≈ 144 µM) | < 0.05 | 1.56 (≈ 4.49 µM) | 100 (≈ 288 µM) | 12.5 (≈ 36 µM) | 6.25 (≈ 18 µM) | 0.39 (≈ 1.12 µM) | 25 (≈ 72 µM) | 3.13 (≈ 9.02 µM) | 0.39 (≈ 1.12 µM) | 50 (≈ 144 µM) | 3.13 (≈ 9.02 µM) | > 200 | 3.13 (≈ 9.02 µM) | > 200 | > 200 | > 200 | 0.1 (≈ 0.288 µM) | > 200 | > 200 | MIC [11]: < 0.2 µg/mL; MIC [14]: 12.5 µg/mL (≈ 36 µM); MIC [17]: 200 µg/mL (≈ 576 µM); MIC [21]: > 200 µg/mL; MIC [22]: > 200 µg/mL; MIC [23]: 3.13 µg/mL (≈ 9.02 µM); MIC (Enterobacter cloacae 963): > 200 µg/mL; MIC [24]: 0.2 µg/mL (≈ 0.576 µM); MIC [25]: 0.39 µg/mL (≈ 1.12 µM)
4 | [C-]#[N+]C12CC3(/C=C/C(=O)Nc4nc5ccccc5s4)OC3C1O2 (stereo not drawn) [compound 70] | > 200 | > 200 | 6.25 (≈ 19.2 µM) | > 200 | > 200 | 1.56 (≈ 4.79 µM) | 0.39 (≈ 1.2 µM) | 3.13 (≈ 9.62 µM) | > 200 | 0.39 (≈ 1.2 µM) | > 200 | 6.25 (≈ 19.2 µM) | > 200 | 3.13 (≈ 9.62 µM) | > 200 | 1.56 (≈ 4.79 µM) | > 200 | 1.56 (≈ 4.79 µM) | > 200 | > 200 | MIC [26]: > 200 µg/mL; MIC [21]: > 200 µg/mL; MIC [22]: > 200 µg/mL; MIC [23]: 0.78 µg/mL (≈ 2.4 µM); MIC (Enterobacter cloacae 963): > 200 µg/mL; MIC [24]: 1.56 µg/mL (≈ 4.79 µM); MIC [25]: 1.56 µg/mL (≈ 4.79 µM)
5 | [C-]#[N+]C12CC3(/C=C/C(=O)Nc4nnc(C)s4)OC3C1O2 (stereo not drawn) [compound 71] | 200 (≈ 689 µM) | > 200 | 200 (≈ 689 µM) | > 200 | 25 (≈ 86.1 µM) | 6.25 (≈ 21.5 µM) | 6.25 (≈ 21.5 µM) | > 200 | 100 (≈ 344 µM) | 1.56 (≈ 5.37 µM) | > 200 | 12.5 (≈ 43.1 µM) | > 200 | 12.5 (≈ 43.1 µM) | > 200 | 12.5 (≈ 43.1 µM) | > 200 | 6.25 (≈ 21.5 µM) | > 200 | > 200 | MIC [26]: > 200 µg/mL; MIC [21]: > 200 µg/mL; MIC [22]: > 200 µg/mL; MIC [23]: 12.5 µg/mL (≈ 43.1 µM); MIC (Enterobacter cloacae 963): > 200 µg/mL; MIC [24]: > 200 µg/mL; MIC [25]: 12.5 µg/mL (≈ 43.1 µM)

From patent US4684664A, “Derivatives of β-(4-isocyano-1,2,3,4-diepoxycyclopentyl) acrylic acid” (Kureha Kagaku Kogyo Kabushiki Kaisha, priority 1984, dated 1987)
